From PMC9403976, “Elucidating the path to Plasmodium prolyl-tRNA synthetase inhibitors that overcome halofuginone resistance” (Nature Communications, 2022)
Several values for one entry are separate records, joined by “and”; a condition that tells them apart may be missing. Identical values can stand only once. Like-named read-outs stand apart in the source and are kept apart here.

Tests used:
P. falciparum Dd2-2D4 = assay: P. falciparum asexual blood stage (ABS) growth assay, SYBR Green, 72 h, wild-type parasites; assay type: cell-based, Plasmodium falciparum; settings: Plasmodium falciparum
[1] = tested on: P. falciparum Dd2-2D4 NCP26 selections S1-3; assay: ABS growth assay on bulk populations and clones from NCP26 resistance selections S1-3; assay type: cell-based, Plasmodium falciparum; settings: for EC50: Plasmodium falciparum; for Fold-change Resistance: independent experiments
Experimental: In short, P. falciparum erythrocytic-stage parasites at 1% parasitemia and 1% hematocrit in RPMI + 0.5% Albumax were seeded at 40 μL/well in 384-well plates with test compounds in triplicate, dose-response format with 10 μM dihydroartemisinin as a kill-control and blank (no compound) wells as a growth-control. […] After 72 h, growth was quantified by measuring fluorescence (Molecular Devices SpectraMax iD5) following SYBR Green 1 staining. Data were analyzed in Excel and plotted in PRISM (V. 8.4.3–9.1.0, GraphPad).
This cycle was repeated for ~50 generations (~100 days), corresponding to 5–6 cycles of drug pressure.
Clonal parasites were isolated from each selection flask by limiting dilution of ring stage parasites in 96-well plates to an average of 0.8 and 0.2 parasites per well.

PfcProRS = molecular target: T1, PfcProRS (Plasmodium falciparum, UniProt Q8I5R7); assay type: binding; settings: for Normalized response, dose-response replicates (SI Fig 14): replicates 1-3
T1 construct: made in house; host or cells: E. coli SoluBL-21

HsProRS = HsProRS (Homo sapiens, UniProt P07814); assay: TR-FRET ligand displacement assay with tracer MAT379 (CoraFluor-1-Halo and anti-His6 antibody formats); assay type: binding; parameters: made in house; host or cells: E. coli SoluBL-21; settings: for Kd: 250 nM MAT379; for normalized TR-FRET signal (dose-response replicates): SI Fig 17a
[2] = tested on: halofuginone-induced P. falciparum (elevated proline homeostasis); assay: P. falciparum ABS growth assay, SYBR Green, 72 h, halofuginone-induced parasites; assay type: cell-based, Plasmodium falciparum; settings: Halofuginone-Induced (HFG-Induced)
Outline: (§1)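 EC50 came from SYBR Green 1 fluorescence measured 72 h after dosing in triplicate dose-response. Dihydroartemisinin at 10 μM set full kill and untreated wells set full growth. Cultures of the Dd2 lines were seeded at 1% hematocrit and 1% parasitemia in Albumax-supplemented RPMI.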

[3] = tested on: HFGR-I P. falciparum (elevated proline homeostasis and PfcProRS^L482H); assay: P. falciparum ABS growth assay, SYBR Green, 72 h, HFGR-I parasites; assay type: cell-based, Plasmodium falciparum; settings: HFGR-I
Outline: as §1

[4] = Log[inhibitor] (M) -5.000, series r16-r27

T1 sequence (Q8I5R7 249-746): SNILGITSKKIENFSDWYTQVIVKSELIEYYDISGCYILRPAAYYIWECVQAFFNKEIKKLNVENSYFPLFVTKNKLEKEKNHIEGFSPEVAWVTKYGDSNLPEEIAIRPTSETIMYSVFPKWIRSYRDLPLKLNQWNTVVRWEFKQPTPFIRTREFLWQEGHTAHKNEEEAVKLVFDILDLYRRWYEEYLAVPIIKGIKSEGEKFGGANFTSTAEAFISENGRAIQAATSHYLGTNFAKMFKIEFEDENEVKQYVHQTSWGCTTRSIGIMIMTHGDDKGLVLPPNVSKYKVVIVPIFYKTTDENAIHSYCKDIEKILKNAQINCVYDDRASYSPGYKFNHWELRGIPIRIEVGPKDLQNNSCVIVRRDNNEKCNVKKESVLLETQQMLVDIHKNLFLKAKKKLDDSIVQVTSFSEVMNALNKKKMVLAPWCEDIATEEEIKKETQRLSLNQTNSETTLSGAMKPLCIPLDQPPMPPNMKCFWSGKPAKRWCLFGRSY
Sequence of HsProRS (P07814 996-1512): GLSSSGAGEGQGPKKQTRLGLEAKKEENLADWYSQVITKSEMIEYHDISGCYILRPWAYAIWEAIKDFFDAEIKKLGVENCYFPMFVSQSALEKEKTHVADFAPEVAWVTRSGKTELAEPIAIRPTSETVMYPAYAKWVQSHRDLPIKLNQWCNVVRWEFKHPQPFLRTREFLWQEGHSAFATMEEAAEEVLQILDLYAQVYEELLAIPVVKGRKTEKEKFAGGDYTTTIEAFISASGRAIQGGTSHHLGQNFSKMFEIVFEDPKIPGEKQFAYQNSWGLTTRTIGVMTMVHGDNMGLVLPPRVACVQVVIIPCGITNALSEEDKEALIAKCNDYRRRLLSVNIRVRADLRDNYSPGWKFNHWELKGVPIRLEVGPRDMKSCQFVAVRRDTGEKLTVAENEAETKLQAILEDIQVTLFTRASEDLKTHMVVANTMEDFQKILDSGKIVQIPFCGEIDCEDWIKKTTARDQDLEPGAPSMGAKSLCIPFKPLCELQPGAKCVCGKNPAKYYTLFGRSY

SMILES: C[C@@H]1C[C@H](C)C[C@H](C)[C@@H](O)CC(=O)O[C@H]([C@@H]2CCC[C@H]2C(=O)O)C/C=C/C=C(/C#N)[C@H](O)[C@@H](C)C1 [Borrelidin, borrelidin, reference compound]
- EC50 (P. falciparum Dd2-2D4; cell line Dd2-2D4 (parent), read-out: EC50 [nM] mean): 6.05 nM
- EC50 ([1]; DD2, cell line S1 - Clone A8, read-out: EC50 [nM] mean): 1.5 nM
- EC50 ([1]; DD2, cell line S1 - bulk population, read-out: EC50 [nM] mean): 1.45 nM
- EC50 ([1]; DD2, cell line S2 - Clone A3, read-out: EC50 [nM] mean): 1.6 nM
- EC50 ([1]; DD2, cell line S2 - Clone B9, read-out: EC50 [nM] mean): 4.67 nM
- EC50 ([1]; DD2, cell line S2 - Clone C5, read-out: EC50 [nM] mean): 1.51 nM
- EC50 ([1]; DD2, cell line S2 - bulk population, read-out: EC50 [nM] mean): 1.3 nM
- EC50 ([1]; DD2, cell line S3 - Clone B3, read-out: EC50 [nM] mean): 1.34 nM
- EC50 ([1]; DD2, cell line S3 - Clone B7, read-out: EC50 [nM] mean): 1.38 nM
- EC50 ([1]; DD2, cell line S3 - bulk population, read-out: EC50 [nM] mean): 1.3 nM
- EC50 ([1]; DD2, read-out: EC50 [nM] mean, cell line S3 - Clone B2): 5.92 nM
- Fold-change Resistance ([1]; S2 - Clone B9): 1.46 and 0.77
- Fold-change Resistance ([1]; S3 - Clone B2): 1.02 and 1.96

SMILES: CC(C)(C)OC(=O)N1CCC[C@H]1C(=O)NCC1CCN(C(=O)Nc2nccnc2C(=O)NC2Cc3ccccc3C2)CC1 [compound 32]
- EC50 (P. falciparum Dd2-2D4; DD2, SI Fig 16b, values on -log scale, read-out: ABS - Dd2-2D4 (converted)): 63.2 nM
- Normalized response, dose-response replicates (SI Fig 14) (PfcProRS; Log[inhibitor] (M) -5.000): 8.11E-02 and -2.06E-02 and -4.64E-02
- Normalized response, dose-response replicates (SI Fig 14) (PfcProRS; Log[inhibitor] (M) -5.301): 3.54E-04 and -5.93E-02 and 6.94E-02
- Normalized response, dose-response replicates (SI Fig 14) (PfcProRS; Log[inhibitor] (M) -5.601): 6.67E-02 and 8.89E-02 and 6.64E-02
- Normalized response, dose-response replicates (SI Fig 14) (PfcProRS; Log[inhibitor] (M) -5.904): 2.31E-01 and 3.17E-01 and 2.64E-01
- Normalized response, dose-response replicates (SI Fig 14) (PfcProRS; Log[inhibitor] (M) -6.208): 3.63E-01 and 4.57E-01 and 4.26E-01
- Normalized response, dose-response replicates (SI Fig 14) (PfcProRS; Log[inhibitor] (M) -6.509): 7.41E-01 and 6.71E-01 and 7.68E-01
- Normalized response, dose-response replicates (SI Fig 14) (PfcProRS; Log[inhibitor] (M) -6.796): 9.02E-01 and 7.89E-01 and 8.70E-01
- Normalized response, dose-response replicates (SI Fig 14) (PfcProRS; Log[inhibitor] (M) -7.108): 8.53E-01 and 8.96E-01 and 8.71E-01
- Normalized response, dose-response replicates (SI Fig 14) (PfcProRS; Log[inhibitor] (M) -7.409): 8.49E-01 and 8.87E-01 and 9.83E-01
- Normalized response, dose-response replicates (SI Fig 14) (PfcProRS; Log[inhibitor] (M) -7.710): 9.08E-01 and 9.29E-01 and 9.85E-01
- Normalized response, dose-response replicates (SI Fig 14) (PfcProRS; Log[inhibitor] (M) -8.000): 9.86E-01 and 8.66E-01 and 9.79E-01
- Normalized response, dose-response replicates (SI Fig 14) (PfcProRS; Log[inhibitor] (M) -8.301): 1.11E+00 and 8.88E-01 and 9.05E-01
- Normalized response, dose-response replicates (SI Fig 14) (PfcProRS; Log[inhibitor] (M) -8.602): 9.30E-01 and 8.25E-01 and 1.02E+00
- Normalized response, dose-response replicates (SI Fig 14) (PfcProRS; Log[inhibitor] (M) -9.000): 8.77E-01 and 8.28E-01 and 9.46E-01
- Normalized response, dose-response replicates (SI Fig 14) (PfcProRS; Log[inhibitor] (M) -9.301): 8.47E-01 and 9.35E-01 and 9.98E-01
- PfcProRS -- best Kd (PfcProRS; SI Fig 16a, values on -log scale): 8.272
- Kd (HsProRS; HsProRS (KD [nM]) + proline, 100 μM proline): 270 nM
- Kd (HsProRS; HsProRS (KD [nM]) −, absence of substrates): 72.1 nM
- normalised signal, dose-response point (Fig 4d) (HsProRS; Log[inhibitor] (M) -5.000, series of 32): 2.12E-01 and 2.00E-01 and 2.05E-01
- normalised signal, dose-response point (Fig 4d) (HsProRS; Log[inhibitor] (M) -5.260): 3.41E-01 and 3.06E-01 and 3.25E-01
- normalised signal, dose-response point (Fig 4d) (HsProRS; Log[inhibitor] (M) -5.520): 5.51E-01 and 5.09E-01 and 5.11E-01
- normalised signal, dose-response point (Fig 4d) (HsProRS; Log[inhibitor] (M) -5.770): 5.87E-01 and 6.67E-01 and 6.60E-01
- normalised signal, dose-response point (Fig 4d) (HsProRS; Log[inhibitor] (M) -6.020): 8.17E-01 and 7.53E-01 and 7.81E-01
- normalised signal, dose-response point (Fig 4d) (HsProRS; Log[inhibitor] (M) -6.280): 8.69E-01 and 9.20E-01 and 9.33E-01
- normalised signal, dose-response point (Fig 4d) (HsProRS; Log[inhibitor] (M) -6.530): 9.20E-01 and 9.88E-01 and 9.42E-01
- normalised signal, dose-response point (Fig 4d) (HsProRS; Log[inhibitor] (M) -6.800): 9.40E-01 and 8.89E-01
- normalised signal, dose-response point (Fig 4d) (HsProRS; Log[inhibitor] (M) -7.060): 9.33E-01 and 9.82E-01 and 1.04E+00
- normalised signal, dose-response point (Fig 4d) (HsProRS; Log[inhibitor] (M) -7.320): 9.28E-01 and 1.05E+00 and 1.04E+00
- normalised signal, dose-response point (Fig 4d) (HsProRS; Log[inhibitor] (M) -7.550): 9.75E-01 and 9.78E-01 and 9.48E-01
- normalised signal, dose-response point (Fig 4d) (HsProRS; Log[inhibitor] (M) -7.800): 9.53E-01 and 9.20E-01 and 9.82E-01
- normalised signal, dose-response point (Fig 4d) (HsProRS; Log[inhibitor] (M) -8.100): 1.05E+00 and 1.02E+00 and 1.07E+00
- normalised signal, dose-response point (Fig 4d) (HsProRS; Log[inhibitor] (M) -8.400): 1.08E+00 and 1.05E+00 and 1.02E+00
- normalised signal, dose-response point (Fig 4d) (HsProRS; Log[inhibitor] (M) -8.590): 1.09E+00 and 1.06E+00 and 1.01E+00
- normalized TR-FRET signal (dose-response replicates) (HsProRS; Log[inhibitor] (M) -5.000): 2.39E-01 and 2.20E-01 and 1.87E-01
- normalized TR-FRET signal (dose-response replicates) (HsProRS; Log[inhibitor] (M) -5.301): 3.62E-01 and 3.47E-01 and 3.37E-01
- normalized TR-FRET signal (dose-response replicates) (HsProRS; Log[inhibitor] (M) -5.601): 5.14E-01 and 4.86E-01 and 5.28E-01
- normalized TR-FRET signal (dose-response replicates) (HsProRS; Log[inhibitor] (M) -5.904): 6.65E-01 and 6.61E-01 and 6.44E-01
- normalized TR-FRET signal (dose-response replicates) (HsProRS; Log[inhibitor] (M) -6.208): 7.43E-01 and 7.50E-01 and 7.76E-01
- normalized TR-FRET signal (dose-response replicates) (HsProRS; Log[inhibitor] (M) -6.509): 8.47E-01 and 8.09E-01 and 8.87E-01
- normalized TR-FRET signal (dose-response replicates) (HsProRS; Log[inhibitor] (M) -6.796): 8.64E-01 and 8.39E-01 and 8.67E-01
- normalized TR-FRET signal (dose-response replicates) (HsProRS; Log[inhibitor] (M) -7.108): 8.86E-01 and 8.93E-01 and 9.29E-01
- normalized TR-FRET signal (dose-response replicates) (HsProRS; Log[inhibitor] (M) -7.409): 9.16E-01 and 8.51E-01 and 8.90E-01
- normalized TR-FRET signal (dose-response replicates) (HsProRS; Log[inhibitor] (M) -7.710): 8.73E-01 and 8.93E-01 and 9.04E-01
- normalized TR-FRET signal (dose-response replicates) (HsProRS; Log[inhibitor] (M) -8.000): 8.95E-01 and 8.48E-01 and 9.51E-01
- normalized TR-FRET signal (dose-response replicates) (HsProRS; Log[inhibitor] (M) -8.301): 9.44E-01 and 8.99E-01 and 9.43E-01
- normalized TR-FRET signal (dose-response replicates) (HsProRS; Log[inhibitor] (M) -8.602): 9.47E-01 and 8.94E-01 and 9.08E-01
- normalized TR-FRET signal (dose-response replicates) (HsProRS; Log[inhibitor] (M) -9.000): 8.96E-01 and 9.17E-01 and 8.59E-01
- normalized TR-FRET signal (dose-response replicates) (HsProRS; Log[inhibitor] (M) -9.301): 8.96E-01 and 9.24E-01 and 9.14E-01
- parasite growth, dose-response point [2, 4]: 56 and 59 and 61
- parasite growth, dose-response point ([2]; Log[inhibitor] (M) -5.408): 91 and 93
- parasite growth, dose-response point ([2]; Log[inhibitor] (M) -5.816): 97 and 101
- parasite growth, dose-response point ([2]; Log[inhibitor] (M) -6.222): 101 and 104
- parasite growth, dose-response point ([2]; Log[inhibitor] (M) -6.638): 105 and 99 and 109
- parasite growth, dose-response point ([2]; Log[inhibitor] (M) -7.046): 102 and 106
- parasite growth, dose-response point ([2]; Log[inhibitor] (M) -7.450): 96 and 98 and 97
- parasite growth, dose-response point ([2]; Log[inhibitor] (M) -7.854): 92 and 97 and 99
- parasite growth, dose-response point ([2]; Log[inhibitor] (M) -8.260): 102 and 96 and 100
- parasite growth, dose-response point ([2]; Log[inhibitor] (M) -8.699): 96 and 106 and 94
- parasite growth, dose-response point ([2]; Log[inhibitor] (M) -9.000): 100 and 96 and 98
- parasite growth, dose-response point ([2]; Log[inhibitor] (M) -9.488): 96 and 100 and 101
- parasite growth, dose-response point [3, 4]: 65 and 64 and 69
- parasite growth, dose-response point ([3]; Log[inhibitor] (M) -5.408): 103 and 102 and 96
- parasite growth, dose-response point ([3]; Log[inhibitor] (M) -5.816): 108 (2×) and 102
- parasite growth, dose-response point ([3]; Log[inhibitor] (M) -6.222): 105
- parasite growth, dose-response point ([3]; Log[inhibitor] (M) -6.638): 107 and 104 and 103
- parasite growth, dose-response point ([3]; Log[inhibitor] (M) -7.046): 101 and 105 and 99
- parasite growth, dose-response point ([3]; Log[inhibitor] (M) -7.450): 87 and 91 and 96
- parasite growth, dose-response point ([3]; Log[inhibitor] (M) -7.854): 87 and 93 and 83
- parasite growth, dose-response point ([3]; Log[inhibitor] (M) -8.260): 88 and 90 and 94
- parasite growth, dose-response point ([3]; Log[inhibitor] (M) -8.699): 93 and 91
- parasite growth, dose-response point ([3]; Log[inhibitor] (M) -9.000): 91 and 92 and 87
- parasite growth, dose-response point ([3]; Log[inhibitor] (M) -9.488): 92 and 82
